Assay results from patent US20230257383A1, “COMPOUND SERVING AS BTK INHIBITOR, PREPARATION METHOD THEREFOR, AND USE THEREOF” (CHENGDU HYPERWAY PHARMACEUTICALS CO., LTD., priority 2020, published 2023).
Read-outs that look alike come from different tables or passages of the source. One block for each compound: values may come before it.

Experiments:
BT474 cell proliferation = assay: In vitro cell proliferation inhibitory activity test (CTG), BT474; assay type: cell-based; settings: Homo sapiens, BT-474, BT474 cell proliferation
Method: (§1) Test Example 4: In Vitro Cell Proliferation Inhibitory Activity Test
(§2) Cells were cultured in 1640 medium, added with 10% inactivated FBS and 1% double antibiotics, and cultured at 37° C. and 5% CO2.
(§3) (1) Cells were routinely cultured until the cell density was 80%-90%, and the cells were harvested when their number reached the requirement.
(§4) (2) Cells were resuspended with corresponding culture medium, counted, and prepared into cell suspension at appropriate density.
(§5) (3) The cell suspension was added to a 96-well plate, 100 μL per well.
(§6) (4) Cells were cultured overnight in a 37° C., 5% CO2 incubator.
(§7) (1) The compounds to be tested were diluted with DMSO to make a stock solution with a final concentration of 20 mM for later use.
(§8) (2) The stock solution was diluted 10 times from 20 mM to 2 mM with DMSO, and then diluted 3 times from 2 mM to 9 concentrations.
(§9) (3) The blank control wells were cells plus 0.5% DMSO, as high-reading control wells.
(§10) (4) Wells with no cells and only medium were used as low-reading control wells.
(§11) 4: Cell treatment with compound
(§12) (1) 24 h after the cells were plated, the compounds acted alone, and 99 μL of growth medium was added to each well, followed by 1 μL of the compound prepared in step 3. The plate was shaken gently to mix uniformly, and then placed in a 37° C., 5% CO2 incubator.
(§13) (2) The cell plate was placed in an incubator for 72 h.
(§14) 5: Detection by CTG method
(§15) (1) The cell plate to be tested was placed at room temperature for 30 min, and 100 μL of medium was discarded from each well.
(§16) (2) 100 μL of CTG reagent (CelltiterGlo kit) was added to each well, placed on a fast shaker for 2 min, and stood at room temperature in the dark for 30 min.
(§17) (3) The chemiluminescent signal value was read with the Envision instrument.
(§18) IC50 was calculated by using GraphPad Prism 8 software. The IC50 (half inhibitory concentration) of the compound was derived using the following nonlinear fitting formula, and the results are shown in the following table:
(§19) Y=Bottom+(Top−Bottom)/(1+10^((Log IC50−X)×HillSlope))
(§20) X: log value of compound concentration, Y: inhibition rate (% inhibition)
(§21) Inhibition rate (% inhibition)=(reading of high-reading control well-reading of compound well)/(reading of high-reading control well-reading of low-reading control well)×100

[1] = tested on: NCI-N87 cell proliferation; assay: In vitro cell proliferation inhibitory activity test (CTG), NCI-N87; assay type: cell-based; settings: Homo sapiens
Method: as §1, §2, §3, §4, §5, §6, §7, §8, §9, §10, §11, §12, §13, §14, §15, §16, §17, §18, §19, §20, §21

DOHH2 cell proliferation = assay: In vitro cell proliferation inhibitory activity test (CTG), DOHH2; assay type: cell-based; settings: Homo sapiens, DOHH-2
Method: as §1, §2, §3, §4, §5, §6, §7, §8, §9, §10, §11, §12, §13, §14, §15, §16, §17, §18, §19, §20, §21

TMD8 cell proliferation = assay: In vitro cell proliferation inhibitory activity test (CTG), TMD8; assay type: cell-based; settings: Homo sapiens, TMD8, 72 h, TMD8 cells
Method: as §1, §2, §3, §4, §5, §6, §7, §8, §9, §10, §11, §12, §13, §14, §15, §16, §17, §18, §19, §20, §21

[2] = Blood-brain barrier permeability test, oral, SD rats; assay type: in vivo; settings: rat, oral 10 mg/kg single dose
Method: Test Example 6: Blood-Brain Barrier Permeability Test
Each test compound was administered orally at a single dose of 10 mg/kg to SD rats for pharmacokinetic study. Each group included 9 rats. The test compound was dissolved in 5% DMSO+10% solutol+85% saline, vortexed for 1-2 min, and ultrasonicated for 5-10 min to prepare into a colorless, transparent and clear administration solution. Animals were fasted overnight before administration. 1 h, 2 h, and 4 h after administration, three SD rats were selected from each group to take about 0.2-0.3 mL of blood through their orbit. The blood sample was placed on ice once collected, and centrifuged to separate the plasma within 15 min (centrifugation conditions: 8000 rpm, 1 min, room temperature). The collected plasma was stored at −20° C. before analysis. Immediately after blood collection, the cerebrospinal fluid and brain tissue were collected. The cerebrospinal fluid was draw out by dural puncture with a micro-sampler syringe under direct vision. Namely, about 100 μl of cerebrospinal fluid was collected with a 100 μl micro sample syringe from the rat that was anesthetized by chloral hydrate, with the head-fixed, the back hair-cut off, a transverse incision (2 cm) made at the line connecting the roots of the two ears, and the muscle layer of the neck and skull base bluntly scraped to expose the foramen magnum. The cerebrospinal fluid was stored at −20° C. before analysis. The rat then was sacrificed immediately, with its head cut off. The dissected brain tissue, with the surface capillaries peeled off, was weighed, added with 3 times the amount of cold saline, homogenized by a homogenizer for 1 min, and stored at −20° C. before analysis. 20 μL of plasma sample and brain homogenate sample was respectively added into 200 μL of working internal standard solution (the same volume of vehicle was added to the blank instead of internal standard), vortexed for 1 min, and centrifuged at 13500 rpm for 10 min. 100 μL of the supernatant was taken and analyzed by LC-MS/MS. 20 μL of the cerebrospinal fluid was added into 60 μL of working internal standard solution (the same volume of vehicle, instead of internal standard, was added to the blank), vortexed for 1 min, and centrifuged at 13500 rpm for 10 min. 50 μL of the supernatant was taken and analyzed by LC-MS/MS.

[3] = Liver microsome metabolic stability test (rat); assay type: in vitro ADME; settings: liver microsomes, read-out: CLint (μL/min/mg) Rat
Method: (§22) 1: To the sample wells of T0, T5, T10, T20, T30, T60 and NCF60, 10 μL of the test or reference working solution and 80 μL of microsome working solution (hepatic microsome with a protein concentration of 0.5 mg/mL) were added, and to Blank60 well, only the microsome working solution was added. Then samples of the Blank60, T5, T10, T20, T30 and T60 other than TO and NCF60 were placed in a 37° C. water bath and pre-incubated for about 10 min.
(§23) 2: To the TO sample well, 300 μL of stop solution (containing 200 ng/mL tolbutamide and 200 ng/mL labetalol in acetonitrile solution) was added first, followed by 10 μL of NADPH regeneration system working solution.
(§24) 3: After the pre-incubation of Blank60, T5, T10, T20, T30 and T60 incubation plates, 10 μL of NADPH regeneration system working solution was added to each sample well to start the reaction, and 10 μL of 100 mM potassium phosphate buffer was added to the NCF60 sample well.
(§25) 4: After incubation for an appropriate time (such as 5, 10, 20, 30 and 60 min), to each test sample well and control well of the Blank60, T5, T10, T20, T30, T60 and NCF60 plates, 300 μL of stop solution was added to terminate the reaction.
(§26) 5: All sample plates were shaken to mix well and centrifuged at 4000 rpm for 20 min, and 100 μL of the supernatant of the test sample or control sample was taken and diluted with 300 μL of pure water for LC-MS/MS analysis.
(§27) 6: Data analysis: T1/2 and CLint(mic) (μL/min/mg) values were calculated according to the first-order elimination kinetics. The first-order elimination kinetics equation was: […]

[4] = Liver microsome metabolic stability test (human); assay type: in vitro ADME; settings: liver microsomes, read-out: CLint (μL/min/mg) Human
Method: as §22, §23, §24, §25, §26, §27

SMILES: Nc1nccn2c(C34CCC(CO)(CC3)OC4)nc(-c3ccc(C(F)(F)c4cccc(C5CC5)c4)cc3)c12 [Example 143]
IC50 (BT474 cell proliferation): 0.467 µM

SMILES: Cc1c(F)cccc1C(F)(F)c1ccc(-c2nc(C34CCC(CO)(CC3)OC4)n3ccnc(N)c23)cc1 [Example 147]
IC50 (BT474 cell proliferation): 0.377 µM

SMILES: Nc1nccn2c(C34CCC(CO)(CC3)OC4)nc(-c3ccc(C(O)(c4ccccc4)C(F)(F)F)cc3)c12 (centres unmarked) [Example 157]
IC50 (BT474 cell proliferation): 2.27 µM

SMILES: Nc1nccn2c(C34CCC(CO)(CC3)OC4)nc(-c3ccc(C(F)(c4ccccc4)C(F)(F)F)cc3)c12 (centres unmarked) [Example 158]
IC50 (BT474 cell proliferation): 4.95 µM

SMILES: Nc1nccn2c(C34CCC(CO)(CC3)OC4)nc(-c3ccc(C(c4ccccc4)(C(F)(F)F)C(F)(F)F)cc3)c12 [Example 159]
IC50 (BT474 cell proliferation): > 1 µM

SMILES: COc1ccc(F)cc1C(=O)NCc1ccc(-c2nn([C@@H](C)C(F)(F)F)c(N)c2C(N)=O)cc1 [LOXO-305]
IC50 (DOHH2 cell proliferation): 4.99 µM
IC50 (TMD8 cell proliferation): 0.184 µM

SMILES: CC#CC(=O)N1CC[C@@H](n2c(=O)n(-c3ccc(Oc4ccccc4)cc3)c3c(N)ncnc32)C1 [Tirabrutinib, reference compound]
IC50 (DOHH2 cell proliferation): 8.09 µM
concentration at 1 h ([2]; brain, time point 1 h, read-out: Drug concentration in brain tissue): 84 ng/g
concentration at 2 h ([2]; brain, time point 2 h, read-out: Drug concentration in brain tissue): 31.1 ng/g
concentration at 4 h ([2]; brain, time point 4 h, read-out: Drug concentration in brain tissue): 13.3 ng/g
Kp at 1 h ([2]; brain/plasma, time point 1 h, read-out: Brain tissue/plasma): 0.118
Kp at 2 h ([2]; brain/plasma, time point 2 h, read-out: Brain tissue/plasma): 0.06
Kp at 4 h ([2]; brain/plasma, time point 4 h, read-out: Brain tissue/plasma): 0.054
concentration at 1 h ([2]; plasma, time point 1 h, read-out: Plasma drug concentration): 713 ng/mL
concentration at 2 h ([2]; plasma, time point 2 h, read-out: Plasma drug concentration): 515 ng/mL
concentration at 4 h ([2]; plasma, time point 4 h, read-out: Plasma drug concentration): 226 ng/mL
microsomal CLint [3]: 32.9 µL/min/mg
IC50 (TMD8 cell proliferation): 0.158 µM
microsomal CLint [4]: 13.1 µL/min/mg

Second part, led by results:

IC50 (BT474 cell proliferation): 0.153 µM
SMILES: Nc1nccn2c(C34CCC(CO)(CC3)OC4)nc(-c3ccc(C(F)(F)c4cccc(F)c4)cc3)c12 [Example 142]
IC50 [1]: 0.106 µM

IC50 (BT474 cell proliferation): 0.191 µM
SMILES: Nc1nccn2c(C34CCC(CO)(CC3)OC4)nc(-c3ccc(C(F)(F)c4c(F)c(F)cc(F)c4F)cc3)c12 [Example 144]

IC50 (BT474 cell proliferation): 0.121 µM
SMILES: Nc1nccn2c(C34CCC(CO)(CC3)OC4)nc(-c3ccc(C(F)(F)c4c(F)cccc4F)cc3)c12 [Example 153]

IC50 (BT474 cell proliferation): 0.269 µM
SMILES: Nc1nccn2c(C34CCC(CO)(CC3)OC4)nc(-c3ccc(C(F)(F)c4ccccc4F)c(F)c3)c12 [Example 156]

IC50 (BT474 cell proliferation): 0.0552 µM
SMILES: CS(=O)(=O)CCNCc1ccc(-c2ccc3ncnc(Nc4ccc(OCc5cccc(F)c5)c(Cl)c4)c3c2)o1 [Lapatinib]
